{"source": "patent US8785682B2", "about": "“Tetranor PGDM: a biomarker of PGD2 synthesis in vivo” (The Trustees of the University of Pennsylvania, priority 2007, dated 2014)", "key": {"[1]": {"assay": "Infusion of exogenous PGD2 i.p. into mice, urinary PGD2 metabolites", "type": "in vivo, mouse", "experimental": "(§1) Urine analysis: ^18O2-2,3-dinor-11β-PGF2α, and ^18O^2-11β-PGF2α were added to 1 milliliter (ml) of human urine or […] of mouse urine and were allowed to equilibrate for 15 minutes. […] The resulting residue was then reconstituted with 100 μl of 5% acetonitrile in water and was filtered by centrifugation.\n(§2) The ESI source used nitrogen for both sheath and auxiliary gas and was set at 70 and 5 (arbitrary units), respectively. The mass spectrometer was operated in the negative ion mode with a capillary temperature of 350° C. and a spray voltage of 2.0 kV. […] The transitions for endogenous 2,3-dinor-11β-PGF2α and ^18O2-2,3-dinor-11β-PGF2α, were m/z 325→145 and m/z 329→145 with CE 13 eV, respectively. They were m/z […] and m/z 357→197 for 9α,11β-PGF2α and ^18O2-9α,11β-PGF2α with CE 24 eV.\nStudies in mice: All studies were performed following protocol review and approval by the Institutional Animal Care and Use Committee (IAUCC) of the University of Pennsylvania. (i) Infusion studies: vehicle or PGD2 [20, 150 or 500 μg] was infused i.p. into twelve-week-old male C57/BL6 mice (n=5 per group). Urine was collected for 24 hours in metabolic cages for analysis of PGD2 metabolites. (ii) PGDS knockouts: Urine was collected for 24 hours from three- to four-month-old male wild type mice, L-PGDS knockout mice (kindly provided by Dr. Yoshihiro Urade, Osaka, Japan) and H-PGDS knockout mice (kindly provided by Dr. Yoshihide Kanaoka, Boston, Mass.), all on a C57/BL6 background (n=15 for WT and LPGDS knockouts and n=10 for H-PGDS knockouts).\n(§3) Results are expressed as mean+/−SEM."}, "biosynthesis of PGD2 [2]": {"system": "biosynthesis of PGD2", "assay": "Aspirin single dose in healthy volunteers, urinary PGD2 metabolites", "type": "in vivo, human", "conditions": "mean±SEM", "experimental": "as §1, §2\n(§4) Clinical Studies: Four clinical studies were performed.\nIn a fourth study, a single dose of aspirin (325 mg) was administered to healthy volunteers (n=18; 9 males and 9 females). Urinary PGD2 metabolites were assessed at time 0 in spot urines and 0-4 hours in urine collected from 0-4 hrs after dosing.\nas §3"}, "PGD2 levels": {"system": "PGD2 levels", "assay": "Urinary tetranor PGDM in patients undergoing PTCA", "type": "in vivo, human", "conditions": "for Level of tetranor-PGDM, Post-PTCA, no aspirin / Level of tetranor-PGDM, Pre-PTCA, no aspirin / Level of tetranor-PGDM, During-PTCA, no aspirin: patient (n=1) on clopidogrel and no aspirin", "from_the_text": "PGD2 levels were studied in patients undergoing percutaneous transluminal coronary angioplasty (PTCA). PTCA is a common non-surgical treatment for opening obstructed coronary arteries. During PTCA, a balloon-tipped catheter is threaded from an artery in the groin to the trouble spot in the artery of the heart. The balloon is then inflated, thereby compressing the plaque and opening (dilating) the narrowed coronary artery so that blood flow is improved. In some instances, an expandable metal stent is also inserted; stents are wire mesh tubes used to counteract further constriction. The inclusion and exclusion criteria for participation in the PGD2 level assessment were as follows. Inclusion: • a. Males and females between the ages of 18-99. • b. […] Treated with any dose of aspirin (acetylsalicylic acid; ASA) daily for at least 5 days OR • 2. […] Treated with an alternative antiplatelet therapy, such as clopidogrel, due to an aspirin hypersensitivity or PMDs preference OR • 4. […] No aspirin therapy at all. • c. Patients presenting to the emergency room (ER) with Acute Coronary Syndrome (ACS) who will have a PTCA. • d. Patients with stable angina or positive stress tests scheduled for a cardiac catheterization. Exclusion: • a. History of unstable diabetes (Hgb A1c>8 or FBS>200). • b. Uncontrolled hypertension (SBP>180, DBP>100). • c. History of an acute confounding disease as judged on clinical screen that according to the investigator may interfere with interpretation of the study results, or compromise the safety of a potential subject. • d. […] Nineteen (19) subjects scheduled for elective PTCA and/or who presented to the emergency room with acute coronary syndrome and subsequently ordered a PTCA were screened according to the inclusion and exclusion criteria. […] Urine was collected from each subject at three times. […] Urine samples were kept at −80° C. The tetranor PDGM level in each sample was then determined by stable isotope dilution, tandem mass spectrometric quantification, following thawing of the sample. The tetranor PGDM level was normalized to the quantity in milligrams (mg) of urine creatinine."}, "[3]": {"experimental": "(§5) In a second study, niacin (dose was 400 mg or 600 mg) was administered to two healthy male volunteers. Urinary PGD2 metabolites were assessed in spot urines collected at the following time points before (time 0) and after (1, 2, 3, 4, 5, 6 hours) niacin administration."}, "biosynthesis of PGD2 [4]": {"system": "biosynthesis of PGD2", "experimental": "as §5"}, "biosynthesis of PGD2 [5]": {"system": "biosynthesis of PGD2", "assay": "Rofecoxib single dose in healthy volunteers, urinary PGD2 metabolites", "type": "in vivo, human", "conditions": "rofecoxib 25 mg single dose, 0 vs 4 hours", "experimental": "as §1, §2, §4\nIn a third study, 18 healthy volunteers (9 male and 9 female) received, in random order, a single dose of placebo or rofecoxib (25 mg) under double-blind conditions, separated by washout periods of at least 2 weeks. Urinary PGD2 metabolites were assessed at 0 and 4 hours in spot urine samples that were collected 30 minutes after voiding.\nas §3"}, "[6]": {"conditions": "mice, 20, 150 or 500 μg PGD2 i.p."}, "[7]": {"conditions": "mice, maximal dose 500 ug PGD2 i.p., 24 h urine, mean±SEM"}, "[8]": {"conditions": "time 0, before aspirin 325 mg single dose"}, "[9]": {"conditions": "niacin 400 mg or 600 mg, spot urines 0-6 hours"}}, "note": "Like-named read-outs stand apart in the source and are kept apart here."}
{"molecule": "CCCCC[C@H](O)/C=C/[C@H]1C(=O)C[C@H](O)[C@@H]1C/C=C\\CCCC(=O)O", "note": "[PGD2, prostaglandin D2]", "values": [{"measurement": "fractional conversion of PGD2 to each metabolite", "setting": "[1]; [6]", "result": "uninfluenced by dose"}, {"measurement": "response of all 3 urinary metabolites to PGD2 infusion", "setting": "[1]; [6]", "result": "increased dose dependently"}, {"measurement": "infused PGD2 excreted as the tetranor PGDM metabolite in mouse urine", "setting": "[1]; mice, i.p. infusion", "result": "3-10%"}, {"measurement": "urinary 2,3-dinor-11β-PGF2α level attained after PGD2 infusion", "setting": "[1]; [7]", "result": "809±346", "unit": "ng/mg creatinine"}, {"measurement": "urinary 11β-PGF2α level attained after PGD2 infusion", "setting": "[1]; [7]", "result": "207±67", "unit": "ng/mg creatinine"}, {"measurement": "urinary tetranor PGDM level attained after PGD2 infusion", "setting": "[1]; [7]", "result": "2498±792", "unit": "ng/mg creatinine"}]}
{"molecule": "CC(=O)Oc1ccccc1C(=O)O", "note": "[aspirin, acetylsalicylic acid]", "values": [{"measurement": "urinary tetranor PGDM level following aspirin", "setting": "biosynthesis of PGD2 [2]; 0-4 hrs after aspirin 325 mg single dose, p<0.001", "result": "0.86±0.07", "unit": "ng/mg creatinine"}, {"measurement": "urinary 2,3-dinor-11β-PGF2α level following aspirin", "setting": "biosynthesis of PGD2 [2]; 0-4 hrs after aspirin 325 mg single dose, p<0.01", "result": "0.32±0.04", "unit": "ng/mg creatinine"}, {"measurement": "urinary 2,3-dinor-11β-PGF2α level before aspirin", "setting": "biosynthesis of PGD2 [2]; [8]", "result": "0.63±0.11", "unit": "ng/mg creatinine"}, {"measurement": "urinary tetranor PGDM level before aspirin", "setting": "biosynthesis of PGD2 [2]; [8]", "result": "1.71±0.21", "unit": "ng/mg creatinine"}, {"measurement": "Level of tetranor-PGDM, Post-PTCA, 81 mg aspirin", "setting": "PGD2 levels; patients (n=3) on daily 81 mg aspirin, urine after procedure", "result": 3.1, "unit": "ng/mg creatinine"}, {"measurement": "Level of tetranor-PGDM, Pre-PTCA, 81 mg aspirin", "setting": "PGD2 levels; patients (n=3) on daily 81 mg aspirin, urine before procedure", "result": 2.6, "unit": "ng/mg creatinine"}, {"measurement": "Level of tetranor-PGDM, During-PTCA, 81 mg aspirin", "setting": "PGD2 levels; patients (n=3) on daily 81 mg aspirin, urine during procedure", "result": 1.8, "unit": "ng/mg creatinine"}, {"measurement": "Level of tetranor-PGDM, Post-PTCA, 325 mg aspirin", "setting": "PGD2 levels; patients on daily 325 mg aspirin, urine after procedure", "result": 3.1, "unit": "ng/mg creatinine"}, {"measurement": "Level of tetranor-PGDM, Pre-PTCA, 325 mg aspirin", "setting": "PGD2 levels; patients on daily 325 mg aspirin, urine before procedure", "result": 2.9, "unit": "ng/mg creatinine"}, {"measurement": "Level of tetranor-PGDM, During-PTCA, 325 mg aspirin", "setting": "PGD2 levels; patients on daily 325 mg aspirin, urine during procedure", "result": 2.8, "unit": "ng/mg creatinine"}]}
{"molecule": "COC(=O)[C@H](c1ccccc1Cl)N1CCc2sccc2C1", "note": "[clopidogrel]", "values": [{"measurement": "Level of tetranor-PGDM, Post-PTCA, no aspirin", "setting": "PGD2 levels; urine after procedure", "result": 13.1, "unit": "ng/mg creatinine"}, {"measurement": "Level of tetranor-PGDM, Pre-PTCA, no aspirin", "setting": "PGD2 levels; urine before procedure", "result": 11.5, "unit": "ng/mg creatinine"}, {"measurement": "Level of tetranor-PGDM, During-PTCA, no aspirin", "setting": "PGD2 levels; urine during procedure", "result": 26.3, "unit": "ng/mg creatinine"}]}
{"molecule": "O=C(O)c1cccnc1", "note": "[niacin]", "values": [{"measurement": "time after which flushing had dissipated", "setting": "[3]; niacin 400 mg or 600 mg oral", "result": "2 to 3", "unit": "h"}, {"measurement": "flushing after oral administration", "setting": "[3]; niacin 400 mg or 600 mg, two volunteers, face and upper part of the body", "result": "intense flush"}, {"measurement": "relationship between metabolite excretion and the doses of niacin", "setting": "biosynthesis of PGD2 [4]; 400 mg vs 600 mg", "result": "not apparent"}, {"measurement": "time of fall of urinary metabolites to basal levels after dosing", "setting": "biosynthesis of PGD2 [4]; niacin 400 mg or 600 mg", "result": "5 to 6", "unit": "h"}, {"measurement": "time of peak of urinary tetranor PGDM and 2,3-dinor-11β-PGF2α after dosing", "setting": "biosynthesis of PGD2 [4]; niacin 400 mg or 600 mg", "result": "2 to 3", "unit": "h"}, {"measurement": "effect on urinary 2,3-dinor-11β-PGF2α", "setting": "biosynthesis of PGD2 [4]; [9]", "result": "elevated"}, {"measurement": "effect on urinary tetranor PGDM", "setting": "biosynthesis of PGD2 [4]; [9]", "result": "elevated"}]}
{"molecule": "CS(=O)(=O)c1ccc(C2=C(c3ccccc3)C(=O)OC2)cc1", "note": "[rofecoxib]", "values": [{"measurement": "effect on urinary 2,3-dinor-11β-PGF2α", "setting": "biosynthesis of PGD2 [5]", "result": "failed to depress"}, {"measurement": "effect on urinary tetranor PGDM", "setting": "biosynthesis of PGD2 [5]", "result": "failed to depress"}]}
{"molecule": "O=C(O)CCCCC(=O)CC[C@H]1C(=O)C[C@H](O)[C@@H]1CCC(=O)O", "note": "[tetranor PGDM, 11,15-dioxo-9α-hydroxy-2,3,4,5-tetranor-prostan-1,20-dioic acid]", "values": [{"measurement": "Level of tetranor-PGDM, Post-PTCA, no aspirin", "setting": "PGD2 levels; urine after procedure", "result": 13.1, "unit": "ng/mg creatinine"}, {"measurement": "Level of tetranor-PGDM, Pre-PTCA, no aspirin", "setting": "PGD2 levels; urine before procedure", "result": 11.5, "unit": "ng/mg creatinine"}, {"measurement": "Level of tetranor-PGDM, During-PTCA, no aspirin", "setting": "PGD2 levels; urine during procedure", "result": 26.3, "unit": "ng/mg creatinine"}]}
